Measurements as given in patent US7049311B1, “Pyrrolbenzodiazepines” (Spirogen Limited, priority 1998, dated 2006).

Tests used:
A2780cisR = test: Ovarian carcinoma cytotoxicity assay; assay type: cell-based, human; conditions: Homo sapiens, A2780cisR, 96 h, read-out: IC50 A2780cisR, cisplatin-resistant, 96 hours, sulphorhodamine B
In short: (§1)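 Cells attached overnight, then read 96 hours later by sulphorhodamine B staining of TCA-fixed cells, with absorbance at 540 nm. IC50 taken from concentration versus % absorbance relative to untreated wells; cisR lines are cisplatin-resistant.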

A2780 = test: Ovarian carcinoma cytotoxicity assay; assay type: cell-based, human; conditions: Homo sapiens, A2780, 96 h, read-out: IC50 A2780, 96 hours, sulphorhodamine B
In short: as §1

CH1 = test: Ovarian carcinoma cytotoxicity assay; assay type: cell-based; conditions: Homo sapiens, CH1, 96 h, read-out: IC50 CH1, 96 hours, sulphorhodamine B
In short: as §1

CH1cisR = test: Ovarian carcinoma cytotoxicity assay; assay type: cell-based; conditions: Homo sapiens, CH1cisR, 96 h, read-out: IC50 CH1cisR, cisplatin-resistant, 96 hours, sulphorhodamine B
In short: as §1

SKOV-3 = test: Ovarian carcinoma cytotoxicity assay; assay type: cell-based; conditions: Homo sapiens, SK-OV-3, 96 h, read-out: IC50 Skov3, 96 hours, sulphorhodamine B
In short: as §1

SF-295 = test: cells; assay type: cell-based; conditions: Homo sapiens, SF-295, 48 h, read-out: LC50
Procedure: The National Cancer Institute (NCI), Bethesda, Md., USA has available an in vitro cytotoxicity screen which consists of approximately 60 human tumour cell lines against which compounds are tested at a minimum of five concentrations each differing 10-fold. A 48 hour continuous exposure protocol is used, where cell viability or growth is estimated with an SRB protein assay.
The test compounds were evaluated against approximately 60 human tumour cell lines. The NCI screening procedures were described in detail by Monks and co-workers (Monks, A et al., Journal of the National Cancer Institute, 1991, 83, 757). Briefly, cell suspensions were diluted according to the particular cell type and the expected target cell density (5000-40,000 cells per well based on cell growth characteristics), and added by pipette (100 μL) into 96-well microtitre plates. The cells were allowed a preincubation period of 24 hours at 37° C. for stabilisation. Dilutions at twice the intended test concentration were added at time zero in 100 μL aliquots to the wells. The test compounds were evaluated at five 10-fold dilutions (10^−4, 10^−5, 10^−6, 10^−7 and 10^−8 μM). […] A plate reader was used to read the optical densities and a microcomputer processed the readings into LC50 values, which is the dosage required to kill half of the cells.

SK-MEL-2 = test: NCI in vitro cytotoxicity screen; assay type: cell-based; conditions: Homo sapiens, SK-MEL-2, 48 h, read-out: LC50
In short: (§2)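 SRB read-out after 48 h continuous compound exposure; LC50 = dose killing half the cells. Cells plated 5000-40,000/well, 24 h preincubation at 37° C. Five 10-fold concentrations, 10^−4 to 10^−8 […].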

MALME-3M = test: NCI in vitro cytotoxicity screen; assay type: cell-based; conditions: Homo sapiens, Malme-3M, 48 h, read-out: LC50
In short: as §2

LOX IMVI = test: NCI in vitro cytotoxicity screen; assay type: cell-based; conditions: Homo sapiens, 48 h, read-out: LC50
In short: as §2

SK-MEL-28 = test: NCI in vitro cytotoxicity screen; assay type: cell-based; conditions: Homo sapiens, SK-MEL-28, 48 h, read-out: LC50
In short: as §2

RXF 393 = test: NCI in vitro cytotoxicity screen; assay type: cell-based; conditions: Homo sapiens, RXF 393, 48 h, read-out: LC50
In short: as §2

M14 = test: NCI in vitro cytotoxicity screen; assay type: cell-based; conditions: Homo sapiens, M14, 48 h, read-out: LC50
In short: as §2

NCI-H522 = test: NCI in vitro cytotoxicity screen; assay type: cell-based; conditions: Homo sapiens, NCI-H522, 48 h, read-out: LC50
In short: as §2

SF-539 = test: NCI in vitro cytotoxicity screen; assay type: cell-based; conditions: Homo sapiens, SF-539, 48 h, read-out: LC50
In short: as §2

## COc1cc2c(cc1OCCC(=O)N1CCCC1)N=C[C@@H]1CCCN1C2=O [UP2005 (161), 3-(7-methoxy-5-oxy(11aS)-2,3,5,11a-tetrahydro-1H-benzo[e]pyrrolo[1,2-a][1,4]diazepin-8-yloxy)-1-perhydro-1-pyrrolyl-1-propanone]
A2780cisR
  IC50: 4.3 µM
A2780
  IC50: 1.5 µM
CH1
  IC50: 1.4 µM
CH1cisR
  IC50: 1.85 µM
SKOV-3
  IC50: 5.4 µM
SF-295
  CC50: 8.8 µM
SK-MEL-2
  CC50: 7.6 µM
MALME-3M
  CC50: 7.5 µM
LOX IMVI
  CC50: 9.2 µM
SK-MEL-28
  CC50: 6.5 µM
RXF 393
  CC50: 6.8 µM
M14
  CC50: 6.2 µM
NCI-H522
  CC50: 8.7 µM
SF-539
  CC50: 7.7 µM
